What was measured:
[1] = target: T1, Alpha-2B adrenergic receptor (Homo sapiens, UniProt P18089)
T1 sequence (P18089 whole entry): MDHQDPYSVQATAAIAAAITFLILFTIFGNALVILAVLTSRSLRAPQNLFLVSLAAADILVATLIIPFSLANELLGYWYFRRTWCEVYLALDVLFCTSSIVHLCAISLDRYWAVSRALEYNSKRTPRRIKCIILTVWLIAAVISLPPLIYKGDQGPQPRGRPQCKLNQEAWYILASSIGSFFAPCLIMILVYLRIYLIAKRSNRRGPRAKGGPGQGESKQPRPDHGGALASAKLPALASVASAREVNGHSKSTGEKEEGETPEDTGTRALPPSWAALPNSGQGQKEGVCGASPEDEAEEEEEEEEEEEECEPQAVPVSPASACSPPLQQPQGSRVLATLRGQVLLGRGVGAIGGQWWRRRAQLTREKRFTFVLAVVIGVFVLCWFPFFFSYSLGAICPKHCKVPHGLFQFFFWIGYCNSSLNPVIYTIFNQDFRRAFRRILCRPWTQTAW

[2] = target: T2, Muscarinic acetylcholine receptor M5 (Homo sapiens, UniProt P08912); assay: Activity of compound against Muscarinic acetylcholine receptor M5 (CHRM5) by displacement of 3H-QNB
T2 sequence (P08912 whole entry): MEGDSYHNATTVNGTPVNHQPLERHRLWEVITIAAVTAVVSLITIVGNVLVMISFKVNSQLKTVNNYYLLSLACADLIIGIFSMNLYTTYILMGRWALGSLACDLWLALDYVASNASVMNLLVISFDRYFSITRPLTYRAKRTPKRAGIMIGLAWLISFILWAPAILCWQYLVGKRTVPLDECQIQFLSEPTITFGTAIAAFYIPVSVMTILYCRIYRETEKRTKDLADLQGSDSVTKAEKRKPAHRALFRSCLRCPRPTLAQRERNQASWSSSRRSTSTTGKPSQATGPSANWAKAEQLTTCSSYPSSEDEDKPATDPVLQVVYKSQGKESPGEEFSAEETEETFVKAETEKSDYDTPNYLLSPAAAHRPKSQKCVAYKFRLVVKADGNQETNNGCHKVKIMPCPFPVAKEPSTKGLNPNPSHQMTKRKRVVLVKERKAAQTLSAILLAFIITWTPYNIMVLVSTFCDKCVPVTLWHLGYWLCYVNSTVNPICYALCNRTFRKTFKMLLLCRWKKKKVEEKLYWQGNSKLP

Structure (SMILES): CCCN1CCC=C(c2cc(-c3ccc(C)cc3)no2)C1
- Ki [1]: 20.4 µM
- Ki [2]: 28.2 µM
